Data: patent US9078871B2, “Estrogen receptor modulators and uses thereof” (SERAGON PHARMACEUTICALS, INC., priority 2010, dated 2015)

How the values were obtained:
Type in all cases: cell-based
ER-α [1] = target: T1, ER-α (Homo sapiens, UniProt P03372); assay: ER-α in Cell Western Assay (SP1); settings: MCF-7 cells, SP1 rabbit monoclonal Ab, 4 or 24 hr post compound addition, read-out: ER In-Cell Western Assay (SP1); for Emax: MCF7, Max Response; for DC50: IC50
T1 construct: endogenous in cells; host or cells: MCF-7
T1 sequence (P03372 1-595): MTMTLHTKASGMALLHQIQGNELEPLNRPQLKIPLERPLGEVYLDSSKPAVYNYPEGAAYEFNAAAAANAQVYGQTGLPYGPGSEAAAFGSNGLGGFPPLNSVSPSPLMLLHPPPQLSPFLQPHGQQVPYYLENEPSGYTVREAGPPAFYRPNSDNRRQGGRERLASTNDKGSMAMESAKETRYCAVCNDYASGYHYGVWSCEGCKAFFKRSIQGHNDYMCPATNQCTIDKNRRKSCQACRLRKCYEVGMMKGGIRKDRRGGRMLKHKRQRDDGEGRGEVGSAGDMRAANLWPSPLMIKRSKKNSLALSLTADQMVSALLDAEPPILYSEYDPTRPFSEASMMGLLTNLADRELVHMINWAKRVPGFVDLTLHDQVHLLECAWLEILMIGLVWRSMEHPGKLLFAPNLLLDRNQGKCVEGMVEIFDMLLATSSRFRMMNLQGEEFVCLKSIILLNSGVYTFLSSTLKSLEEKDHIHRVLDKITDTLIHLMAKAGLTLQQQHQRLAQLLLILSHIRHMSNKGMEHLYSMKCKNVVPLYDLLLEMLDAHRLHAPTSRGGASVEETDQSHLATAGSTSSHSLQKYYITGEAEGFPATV
Experimental: (§1) MCF-7 cells were adjusted to a concentration of 200,000 cells per mL in RPMI containing 10% charcoal-stripped FBS and 20 mM HEPES. 16 microliters of the cell suspension (3200 cells) was added to each well of a poly-D-lysine 384 well plate, and the cells were incubated overnight to allow the cells to adhere. The following day an eleven point, serial semilog dilution of each compound was added to the cells in 16 μL at a final concentration ranging from 0.3-0.000003 μM. At 4 or 24 hr post compound addition, the cells were fixed (10% formalin in PBS) for 20 minutes. Cells were permeabalized in PBS 0.1% Triton and blocked with LICOR blocking buffer (50 μl/well, 90′). The wells were then incubated overnight at 4° C. with SP1 rabbit monoclonal Ab (Thermo Scientific) diluted 1:1000 in LICOR blocking buffer/0.1% Tween-20. Wells which were treated with blocking buffer with Tween but no antibody were used as a background control. Wells were washed with 0.1% Tween-20/PBS and then incubated in goat anti-rabbit IRDye™ 800CW (LICOR Inc.; 1:1000) and DRAQ5 DNA dye (1:2000 for 2 mM stock) diluted in LICOR blocking buffer containing 0.1% Tween-20 and 0.01% SDS for 60 minutes. Cells were washed (50 μl/well, 5′ each) in 0.1% Tween-20/PBS. Plates were scanned on a LICOR Odyssey infrared imaging system. Integrated intensities in the 800 nm channel and 700 nm channel were measured to determine levels of ER and DNA respectively. Percent ER levels were determined as follows: (Integrated intensity 800 nm sample/integrated intensity 700 nm sample)/(Integrated intensity 800 nm untreated cells/integrated intensity 700 nm untreated cells)×100=% ER levels.

ER-α [2] = target: T1, ER-α; assay: ER-α In Cell Western Assay (ER1D5); settings: MCF-7 cells, ER1D5 antibody, 4 or 24 hr post compound addition, read-out: ER In-Cell Western Assay (ER1D5); for Emax: MCF7, Max Response; for DC50: IC50
Experimental: as §1, with “with ER1D5 (Santa Cruz Biotechnology)” for “with SP1 rabbit monoclonal Ab (Thermo Scientific)”, “diluted 1:100” for “diluted 1:1000”, “goat anti-mouse” for “goat anti-rabbit”

MCF-7 cells = assay: Breast Cancer Cell Viability Assay (MCF7 Viability Assay); settings: 5 days' compound exposure, CellTiter-Glo; for IC50: Homo sapiens, MCF7, 120 h
Experimental: MCF-7 cells were adjusted to a concentration of 20,000 cells per mL in RPMI containing 10% FBS and 20 mM HEPES. 16 microliters of the cell suspension (320 cells) was added to each well of a 384 well plate, and the cells were incubated overnight to allow the cells to adhere. The following day an eleven point, serial semilog dilution of each compound was added to the cells in 16 μL at a final concentration ranging from 0.3-0.000003 μM. After 5 days' compound exposure, 16 μL of CellTiter-GLo (Promega, Madison Wis.) was added to the cells the relative luminescence units (RLUs) of each well was determined. CellTiter-Glo added to 32 μL of medium without cells was used to obtain a background value. The Percent viability of each sample was determined as follows: (RLU sample-RLU background/RLU untreated cells-RLU background)×100=% viability.

In the case of `CNCCOc1ccc(C2Oc3ccc(O)cc3C(C)=C2c2cccc(O)c2)cc1` (stereo not drawn) [Example 3, 3-(3-Hydroxyphenyl)-4-methyl-2-(4-(2-(methylamino)ethoxy)phenyl)-2H-chromen-6-ol], the Emax (ER-α [1]) is reported as under 60%, the DC50 (ER-α [1]) is reported as at most 1 nM and the Emax (ER-α [2]) is reported as under 40%. The DC50 (ER-α [2]) was at most 1 nM, the “MCF7 Viability Assay Max Response” value (MCF-7 cells) was “++ (++ = a single % value ≧50%)” and the IC50 (MCF-7 cells) was at most 1 nM.
Work on `CC1=C(c2cccc(O)c2)C(c2ccc(N(C)CCO)cc2)Oc2ccc(O)cc21` (stereo not drawn) [Example 4, 2-(4-((2-Hydroxyethyl)(methyl)amino)phenyl)-3-(3-hydroxyphenyl)-4-methyl-2H-chromen-6-ol] yielded an Emax (ER-α [1]) of under 60%, a DC50 (ER-α [1]) of over 1 nM and an Emax (ER-α [2]) of under 40%. The DC50 (ER-α [2]) was over 1 nM, the “MCF7 Viability Assay Max Response” value (MCF-7 cells) was “+ (+ = a single % value <50%)” and the IC50 (MCF-7 cells) was over 1 nM.
Work on `CCN(CC)CCOc1ccc(C2Oc3ccc(O)cc3C(C)=C2c2cccc(O)c2)cc1` (stereo not drawn) [Example 5, 2-(4-(2-(Diethylamino)ethoxy)phenyl)-3-(3-hydroxyphenyl)-4-methyl-2H-chromen-6-ol] yielded an Emax (ER-α [1]) of under 60%, a DC50 (ER-α [1]) of at most 1 nM and an Emax (ER-α [2]) of under 40%. For the same compound, the DC50 (ER-α [2]) was over 1 nM, the “MCF7 Viability Assay Max Response” value (MCF-7 cells) was “++ (++ = a single % value ≧50%)” and the IC50 (MCF-7 cells) was at most 1 nM.
In the case of `CC1=C(c2cccc(O)c2)C(c2ccc(OC[C@H](C)N3CCCC3)cc2)Oc2ccc(O)cc21` (stereo partly drawn) [Example 6, 3-(3-Hydroxyphenyl)-4-methyl-2-(4-((S)-2-(pyrrolidin-1-yl)propoxy)phenyl)-2H-chromen-6-ol], the Emax (ER-α [1]) is reported as 60 to 85%, the DC50 (ER-α [1]) is reported as at most 1 nM and the Emax (ER-α [2]) is reported as at least 65%. The DC50 (ER-α [2]) was at most 1 nM, the “MCF7 Viability Assay Max Response” value (MCF-7 cells) was “++ (++ = a single % value ≧50%)” and the IC50 (MCF-7 cells) was at most 1 nM.
`CC1=C(c2cccc(O)c2)C(c2ccc(OC[C@@H](C)N3CCCC3)cc2)Oc2ccc(O)cc21` (stereo partly drawn) [Example 7, 3-(3-Hydroxyphenyl)-4-methyl-2-(4-((R)-2-(pyrrolidin-1-yl)propoxy)phenyl)-2H-chromen-6-ol] gave an Emax (ER-α [1]) of under 60%, a DC50 (ER-α [1]) of at most 1 nM and an Emax (ER-α [2]) of under 40%. The DC50 (ER-α [2]) was over 1 nM, the “MCF7 Viability Assay Max Response” value (MCF-7 cells) was “+ (+ = a single % value <50%)” and the IC50 (MCF-7 cells) was at most 1 nM.
With `CC1=C(c2cccc(O)c2)C(c2ccc(OCCN3CC[C@@H](C)C3)cc2)Oc2ccc(O)cc21` (stereo partly drawn) [Example 8, 3-(3-Hydroxyphenyl)-4-methyl-2-(4-(2-((R)-3-methylpyrrolidin-1-yl)ethoxy)phenyl)-2H-chromen-6-ol] the Emax (ER-α [1]) was at least 85%, the DC50 (ER-α [1]) was at most 1 nM and the Emax (ER-α [2]) was at least 65%. For the same compound, the DC50 (ER-α [2]) was at most 1 nM, the “MCF7 Viability Assay Max Response” value (MCF-7 cells) was “++ (++ = a single % value ≧50%)” and the IC50 (MCF-7 cells) was at most 1 nM.
`CC1=C(c2cccc(O)c2)C(c2ccc(OCCN3CCCCC3)cc2)Oc2ccc(O)cc21` (stereo not drawn) [Example 9, 3-(3-Hydroxyphenyl)-4-methyl-2-(4-(2-piperidylethoxy)phenyl)-2H-chromen-6-ol] showed an Emax (ER-α [1]) of 60 to 85%, a DC50 (ER-α [1]) of at most 1 nM and an Emax (ER-α [2]) of 40 to 65%. The DC50 (ER-α [2]) was at most 1 nM, the “MCF7 Viability Assay Max Response” value (MCF-7 cells) was “++ (++ = a single % value ≧50%)” and the IC50 (MCF-7 cells) was at most 1 nM.
Work on `CC1=C(c2cccc(O)c2)C(c2ccc(OC[C@@H](C)N3CC[C@@H](C)C3)cc2)Oc2ccc(O)cc21` (stereo partly drawn) [Example 10, 3-(3-Hydroxyphenyl)-4-methyl-2-(4-((R)-2-((R)-3-methylpyrrolidin-1-yl)propoxy)phenyl)-2H-chromen-6-ol] yielded an Emax (ER-α [1]) of 60 to 85%, a DC50 (ER-α [1]) of at most 1 nM and an Emax (ER-α [2]) of under 40%. The DC50 (ER-α [2]) was at most 1 nM, the “MCF7 Viability Assay Max Response” value (MCF-7 cells) was “+ (+ = a single % value <50%)” and the IC50 (MCF-7 cells) was at most 1 nM.
For `CC1=C(c2cccc(O)c2)C(c2ccc(OCCN3CC[C@H](C)C3)cc2)Oc2ccc(O)cc21` (stereo partly drawn) [Example 11, 3-(3-Hydroxyphenyl)-4-methyl-2-(4-(2-((S)-3-methylpyrrolidin-1-yl)ethoxy)phenyl)-2H-chromen-6-ol], the Emax (ER-α [1]) was 60 to 85%, the DC50 (ER-α [1]) was at most 1 nM and the Emax (ER-α [2]) was 40 to 65%. The DC50 (ER-α [2]) was at most 1 nM, the “MCF7 Viability Assay Max Response” value (MCF-7 cells) was “++ (++ = a single % value ≧50%)” and the IC50 (MCF-7 cells) was at most 1 nM.
Compound `CC1=C(c2cccc(O)c2)C(c2ccc(OC[C@H](C)N3CC[C@H](C)C3)cc2)Oc2ccc(O)cc21` (stereo partly drawn) [Example 12, 3-(3-Hydroxyphenyl)-4-methyl-2-(4-((S)-2-((S)-3-methylpyrrolidin-1-yl)propoxy)phenyl)-2H-chromen-6-ol] has an Emax (ER-α [1]) of 60 to 85%, a DC50 (ER-α [1]) of at most 1 nM and an Emax (ER-α [2]) of 40 to 65%. For the same compound, the DC50 (ER-α [2]) was at most 1 nM, the “MCF7 Viability Assay Max Response” value (MCF-7 cells) was “++ (++ = a single % value ≧50%)” and the IC50 (MCF-7 cells) was at most 1 nM.
`CC1=C(c2cccc(O)c2)C(c2ccc(OC[C@@H](C)N3CC[C@H](C)C3)cc2)Oc2ccc(O)cc21` (stereo partly drawn) [Example 13, 3-(3-Hydroxyphenyl)-4-methyl-2-(4-((R)-2-((S)-3-methylpyrrolidin-1-yl)propoxy)phenyl)-2H-chromen-6-ol] showed an Emax (ER-α [1]) of under 60%, a DC50 (ER-α [1]) of at most 1 nM and an Emax (ER-α [2]) of under 40%. The DC50 (ER-α [2]) was at most 1 nM, the “MCF7 Viability Assay Max Response” value (MCF-7 cells) was “++ (++ = a single % value ≧50%)” and the IC50 (MCF-7 cells) was at most 1 nM.
With `CC1=C(c2cccc(O)c2)C(c2ccc(OCCn3cccc3)cc2)Oc2ccc(O)cc21` (stereo not drawn) [Example 14, 3-(3-Hydroxyphenyl)-4-methyl-2-(4-(2-pyrrolylethoxy)phenyl)-2H-chromen-6-ol] the Emax (ER-α [1]) was 60 to 85%, the DC50 (ER-α [1]) was at most 1 nM and the Emax (ER-α [2]) was 40 to 65%. The DC50 (ER-α [2]) was at most 1 nM, the “MCF7 Viability Assay Max Response” value (MCF-7 cells) was “+ (+ = a single % value <50%)” and the IC50 (MCF-7 cells) was at most 1 nM.
Compound `CC1=C(c2cccc(O)c2)C(c2ccc(OC[C@H](C)N3CCCCCC3)cc2)Oc2ccc(O)cc21` (stereo partly drawn) [Example 15, 2-(4-((S)-2-(Azepan-1-yl)propoxy)phenyl)-3-(3-hydroxyphenyl)-4-methyl-2H-chromen-6-ol] has an Emax (ER-α [1]) of 60 to 85%, a DC50 (ER-α [1]) of at most 1 nM and an Emax (ER-α [2]) of 40 to 65%. For the same compound, the DC50 (ER-α [2]) was at most 1 nM, the “MCF7 Viability Assay Max Response” value (MCF-7 cells) was “++ (++ = a single % value ≧50%)” and the IC50 (MCF-7 cells) was at most 1 nM.
